According to PMC7784547 (Bioorganic Chemistry, 2021):
“Also recorded” adds a separate entry of the source. Like-named read-outs stand apart in the source and are kept apart here.

Tests used:
in vitro = conditions: dog
[1] = system: Influenza A/Puerto Rico/8/34 (H1N1); assay: microbe, parasite or virus in culture; conditions: H1N1|PR8, MDCK, read-out: IC50 ± SD, PR8
A/Aichi/2/68 (H3N2) = assay: microbe, parasite or virus in culture; assay type: cell-based; conditions: read-out: IC50 ± SD, H3N2
[2] = system: Influenza A/Puerto Rico/8/34 (H1N1)
SARS-CoV-2 = conditions: read-out: IC50 against SARS-CoV-2, Full-time treatment; cited from earlier work
[3] = system: influenza A/PR/8/34 (H1N1) virus; design: species or system KM mice; conditions: mouse, in vivo; for body weight of infected mice: po
[4] = system: influenza A/PR/8/34 (H1N1) virus; assay type: cell-based
[5] = system: A/Puerto Rico/8/34 (H1N1) influenza virus; assay type: cell-based
[6] = system: Influenza A/Puerto Rico/8/34 (H1N1); assay type: cell-based, influenza A virus
[7] = system: influenza virus A/PR/8/34 (H1N1)
[8] = mouse, in vivo, po, 10 mg/kg
influenza A virus = assay type: cell-based
hemagglutinin (HA) = hemagglutinin (HA) (Influenza A virus, UniProt P03452)
hemagglutinin (HA), sequence (P03452 18-342 limits assumed): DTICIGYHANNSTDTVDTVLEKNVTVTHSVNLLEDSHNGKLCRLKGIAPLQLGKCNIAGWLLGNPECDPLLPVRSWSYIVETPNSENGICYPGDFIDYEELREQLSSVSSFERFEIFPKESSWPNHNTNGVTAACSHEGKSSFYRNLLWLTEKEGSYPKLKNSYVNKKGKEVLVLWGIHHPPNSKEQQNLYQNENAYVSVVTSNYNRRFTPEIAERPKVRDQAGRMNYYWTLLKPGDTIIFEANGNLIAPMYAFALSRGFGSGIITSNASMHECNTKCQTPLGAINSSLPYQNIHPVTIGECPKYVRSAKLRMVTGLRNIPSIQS
hemagglutinin (HA), sequence (P03452 344-565 limits assumed): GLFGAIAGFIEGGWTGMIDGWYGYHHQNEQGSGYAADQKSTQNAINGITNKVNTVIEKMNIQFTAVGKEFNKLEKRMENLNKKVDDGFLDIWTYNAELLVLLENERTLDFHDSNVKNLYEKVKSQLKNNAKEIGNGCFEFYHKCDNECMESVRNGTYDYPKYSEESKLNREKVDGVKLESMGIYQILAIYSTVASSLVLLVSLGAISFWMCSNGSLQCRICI

C=Cc1c(C)c2cc3nc(c4c5[nH]c(cc6nc(cc1[nH]2)C(C)=C6CC)c(C)c5C(=O)C4)[C@@H](CCC(=O)O)[C@@H]3C [PPa, pyropheophorbide a, reference compound]
CC50 (in vitro): 140 ± 3.61 µM
IC50 [1]: 0.32 ± 0.28 µM
IC50 (A/Aichi/2/68 (H3N2); Influenza A virus, H3N2, MDCK): 1.23 ± 1.1 µM

CC(C)CCC[C@@H](C)[C@H]1CC[C@H]2[C@@H]3CC=C4C[C@@H](OCC(=O)N[C@@H](CCCCN)C(=O)N[C@@H](CCCCN)C(=O)N[C@@H](Cc5c[nH]c6ccccc56)C(=O)N[C@@H](CCCCN)C(N)=O)CC[C@]4(C)[C@H]3CC[C@]12C [S-KKWK, reference compound]
IC50 ([2]; /Puerto Rico/8/34, 48 h): 1.85 ± 0.92 µM

CCN(CC)CCCC(C)Nc1ccnc2cc(Cl)ccc12 (centres unmarked) [chloroquine]
IC50 (SARS-CoV-2): 10 µM

CCOC(=O)C1=C[C@@H](OC(CC)CC)[C@H](NC(C)=O)[C@@H](N)C1 [oseltamivir phosphate, reference compound]
body weight of infected mice [3]: slowly increased

protoporphyrin IX [PPIX]
CC50 (Vero-E6 cells): 120.8 ± 0.95 µM
inhibitory effect by time of addition (viral titer in supernatant) [4]: better inhibitory effect
NP expression (green fluorescence) after treatment [5]: apparently decreased
antiviral activity with red light versus no light [6]: no significant difference
IC50 ([7]; read-out: IC50 ± SD, After infection): > 17.8 µM
IC50 ([7]; read-out: IC50 ± SD, During infection): 8.87 ± 3.07 µM
IC50 ([7]; read-out: IC50 ± SD, Pretreatment of cell): > 17.8 µM
IC50 ([7]; read-out: IC50 ± SD, Pretreatment of virus): 1.88 ± 0.85 µM
time of maximum peak of PPIX in plasma [8]: about 2 h
antiviral activity with increasing added lipids (influenza A virus): decreased along with the increase of lipids
IC50 ([2]; read-out: IC50 ± SD, PR8): 1.88 ± 0.85 µM
CC50 (MDCK cells): 230 ± 4.53 µM
CC90 (MDCK cells): 316 µM
hemagglutinin inhibition (viral adsorption to target cells) (hemagglutinin (HA)): negative results
IC50 (A/Aichi/2/68 (H3N2)): 1.49 ± 0.66 µM
survival rate and mean survival time of infected mice [3]: apparently prolonged; also recorded: apparently increased
body weight of infected mice [3]: slowly increased
